Measurements published in patent EP1488698A1, “Compositions for descreasing intracellular inositol trisphosphate concentration and uses thereof” (priority 1995, dated 1997).
Values joined by “and” are separate entries in the source; they are usually repeats but may differ in a detail not shown here. Identical values can stand only once.

Experiments:
cortical neurons = assay: Calcium ion signalling (fura 2) in intact cortical neurons; type: cell-based, chick; conditions: neurons loaded to 150 ± 20 pmoles per mg protein; 10 µM glutamate agonist, 30 minutes
Protocol: Metabotropic receptor function was examined in intact neurons by assaying lysosphingolipid modulation of calcium ion signalling. Approximately 1 X 10^6 cortical neurons were cultured on rectangular L-polylysine-coated coverslips and loaded with lysocerebroside or lysosphingomyelin to a level of 150 ± 20 pmoles per mg protein. The neurons were returned to complete Ham's high glucose medium/DMEM (1:1, vol:vol) and infiltrated with 5 µM fura 2/AM (Molecular Probes, Eugene, OR). Fura 2 is a calcium chelator whose fluorescence absorbance shifts to shorter wavelength upon calcium ion binding is measurable in intact cells. A change in intraneuronal calcium ion concentration was monitored as a change in the fluorescence spectrum.
The neurons were exposed to 10 µM glutamate agonist (for example, ibotenate) for 30 minutes at 37°C. The coverslips were then transferred to quartz cuvettes in medium containing 250 µM sulfinpyrazone to prevent fura 2/AM diffusion. Fluorescence ratios were recorded in a Perkin-Elmer LS-5 Fluorescence Spectrometer thermostatted at 37°C at excitation wavelengths of 340 and 380 nm, and emission measurement at 500 nm. Calcium ion signalling in agonist-stimulated neurons was 3.0 ± 0.2 arbitrary units for ibotenate-exposed neurons.

male F344 rats = assay: Behavioral analysis after ICV infusion (quisqualate excitotoxicity model); type: in vivo; conditions: for effective dose (to prevent or reverse quisqualate effects): pilot testing, the higher doses appeared to be more reliable; for number of convulsions or spasms: pretreatment with Psychosine (125 nmoles) or Lysosphingomyelin (125 nmoles and 150 nmoles) ICV 30 minutes before quisqualate 225 nmoles, n = 6 per group, Fig. 8; for convulsant behavior, compound alone: psychosine at 125 nmoles, lysosphingomyelin at 125 nmoles and 150 nmoles, ICV without quisqualate; for behavioral and histological changes caused by quisqualate: rats pretreated with 125 nmoles of the lysosphingolipid; for BEHAVIORAL RESPONSE: 30 minutes prior to quisqualate
Protocol: (§1) The animals used in this experiment were male F344 rats (Charles River Breeding Laboratories). The animals were housed individually, exposed to a 12-hour light-dark cycle, and allowed free access to food and water. The animals weighed approximately 250 g at the beginning of each experiment and were weighed daily. In addition, the animals were habituated to handling before each experiment.
(§2) Before administering various compounds, the animals were anesthetized with sodium pentobarbital (50 mg/kg, i.p.) and positioned in a sterotaxic instrument. A 26 gauge cannula was inserted into the cerebral ventricle at the following co-ordinates: 1.0 mm posterior to bregma, 1.5 mm lateral to the midline, and 4.0 mm below the dorsal surface of the neocortex. Cannulas were capped and fixed in place with dental cement. One week after cannulation, 10 µl of each of the treatment drugs was infused, ICV (i.e. into the ventricals of the brain), via a micropump at a rate of 10 µl/min. For this procedure, the animals were lightly restrained and unanesthetized. Following administration of the compound, the infusion cannula remained in position for one minute, after which the permanent in situ cannula was capped.
(§3) The compounds administered were obtained from a commercial supplier (Sigma Chemical Co., St. Louis, MO) and dissolved in saline prior to injection. These compounds included quisqualate (injected at doses ranging from 100 nmole/10 µl to 1 µmole/10 µl), lysocerebroside, and lysophingomyelin (which were injected at doses of 25 nmoles/10 µl to 150 nmoles/10 µl).
Pilot studies identified several specific behavioral measures that could be used to indicate excessive activation of the metabotropic receptor (see Table 3). […] The experiments that follow were based on an analysis of these behaviors over a two hour period after administration of the compounds of the invention. Behavioral observation was carried out by two trained observers, who worked independently of one another and who were blind to the experimental groups. […] Frequency and duration means were computed by subtracting pre-infusion means from post-infusion means.
The experiment began one week after ICV cannulation. […] Following the baseline observation period, animals received the first of two ICV infusions (all infusions were of a 10 µl volume that was administered over a 1 minute period). For the first five groups listed above, this consisted of saline (10 µl/minute), for the following 3 groups the infusions were psychosine at 125 nmoles, lysosphingomyelin at 125 nmoles, or lysosphingomyelin at 150 nmoles, respectively. Thirty minutes later, all animals received the second infusion which, for the first five groups listed above, consisted of saline, quisqualate at 225 nmoles, psychosine at 125 nmoles, lysosphingomyelin at 125 nmoles, and lysosphingomyelin at 150 nmoles respectively. […] Following the second infusion animals were returned to their cages, and observed continuously over the subsequent 2 hours.

hippocampal neurons = assay: Histological analysis of brain (cresyl violet) seven days after ICV infusion; type: in vivo, rats; conditions: pretreatment with psychosine 125 nmoles; quisqualate 225 nmoles ICV; Figs. 7A and 7B
Protocol: as §1, §2, §3
Seven days after the compounds were administered, animals were sacrificed by transcardial perfusion with neutralized, buffered 10% formalin-saline. Their brains were removed, post-fixed overnight in 10% formalin-saline, and sectioned along the coronal plane (into 50 µm thick sections) on a freezing microtome. The sections were stained with cresyl violet to determine the extent of cellular destruction. […]
Given that high concentrations of metabotropic receptors are located in the hippocampus, and that the hippocampus is particularly vulnerable to the effects of a variety of insults including ischemia and hypoxia, this region was examined for evidence of neuronal degeneration due to glutamate excitoxicity.

Row | SMILES | agonist-elicited calcium signalling in lysosphingolipid-loaded neurons (cortical neurons) | effective dose (to prevent or reverse quisqualate effects) (male F344 rats; ICV, rats) | sedation (male F344 rats; Lysosphingomyelin 150 nmoles ICV, rats) | behavioral or neurotoxic effects of the compounds (male F344 rats; doses as high as 125 nmoles per animal, ICV, rats) | number of convulsions or spasms (male F344 rats) | convulsant behavior, compound alone (male F344 rats) | duration of teeth chattering, akinesia and mobilization, compared with quisqualate alone (male F344 rats; quisqualate 225 nmoles and lysophingomyelin 150 nmoles ICV, Fig. 9) | behavioral and histological changes caused by quisqualate (male F344 rats; ICV) | neuronal loss (CA1 pyramidal neurons) caused by quisqualate (hippocampal neurons) | BEHAVIORAL RESPONSE (male F344 rats; Psychosine 25 nmoles + Quisqualate 200 moles, ICV) | BEHAVIORAL RESPONSE (male F344 rats; Psychosine 50 nmoles + Quisqualate 200 moles, ICV) | BEHAVIORAL RESPONSE (male F344 rats; Psychosine 100 nmoles + Quisqualate 200 nmoles, ICV) | BEHAVIORAL RESPONSE (male F344 rats; Psychosine 100 nmoles + Quisqualate 250 nmoles, ICV) | BEHAVIORAL RESPONSE (male F344 rats; Psychosine 125 nmoles + Quisqualate 225 nmoles, ICV) | BEHAVIORAL RESPONSE (male F344 rats; Psychosine 150 nmoles + Quisqualate 250 nmoles, ICV) | BEHAVIORAL RESPONSE (male F344 rats; psychosine 125 moles + Quisqualate 200 moles, ICV)
1 | CCCCCCCCCCCCC/C=C/[C@@H](O)[C@@H](N)COP(=O)([O-])OCC[N+](C)(C)C [lysosphingomyelin, sphingosyl phosphorylcholine] | no calcium signalling measurably over controls | 125 nmol and 150 nmol | mild sedation | no behavioral or neurotoxic effects were observed | significantly (p<01) attenuated | displayed no convulsant behavior | quisqualate alone spent significantly (p< .01) more time engaged in these behaviors | absent | – | – | – | – | – | – | – | –
2 | CCCCCCCCCCCCC/C=C/[C@@H](O)[C@@H](N)CO[C@@H]1O[C@H](CO)[C@H](O)[C@H](O)[C@H]1O [psychosine] | no calcium signalling measurably over controls | 125 nmol | – | – | significantly (p<01) attenuated | displayed no convulsant behavior | – | absent | prevents the neuronal loss caused by quisqualate | Moderate convulsions, teeth chattering, akinesia and hyperactivity | Moderate convulsions, teeth chattering, akinesia and hyperactivity | Almost complete attenuation of Quisqualate response, some teeth chattering post-injection | Moderate convulsions, teeth chattering, akinesia. Quisqualate markedly reduced compared to typical Quisqualate response at this dose. | Complete attenuation of Quisqualate response | Almost complete attenuation of Quisqualate response | Complete attenuation of Quisqualate response
